Test system: adult patients with uncontrolled gout
Assay: Serum uric acid (sUA) levels and sUA responder rate, open-label study of pegloticase with MTX (MIRROR OL)
Assay type: in vivo, human
Settings: Month 6 sUA Responders
Protocol: The primary objective is to estimate the response rate during Month 6 (Weeks 20, 22, and 24), as measured by the sustained normalization of serum uric acid (SUA) to <6 mg/dL for at least 80% of the time during Month 6 in subjects receiving KXX with MTX.
The primary efficacy outcome endpoint is the sustained normalization of SUA to <6 mg/dL for at least 80% of the time during month 6 (weeks 20, 22, and 24) in subjects receiving KXX with MTX. […] Participants who achieve this endpoint were classified as “responders.” Serum uric acid (SUA) responders may also be defined as participants achieving and maintaining SUA <6 mg/dL for at least 80% of the time during Month 6 (Weeks 20, 22, and 24).
Blood samples may be collected prior to each pegloticase infusion for measurement of SUA levels using the Beckman Coulter AU System Uric Acid procedure. Participants were declared “non-responders” if there were SUA measures >6 mg/dL at 2 consecutive study visits beginning with the week 2 visit. […] This assumption and subsequent discontinuation of pegloticase was consistent with the protocol of large phase III randomized controlled trials and the product label. A formal stopping rule was 2 occasions of SUA levels of greater than 6 mg/dL.
Clinical Chemistry—Blood samples were collected prior to each pegloticase infusion for measurement of SUA levels (primary efficacy parameter) using the Beckman Coulter AU System Uric Acid procedure. In this procedure uric acid is converted to hydrogen peroxide. Hydrogen peroxide reacts with reagent to produce a chromophore which is read bichromatically at 660/800 nm. The amount of dye formed is proportional to the uric acid concentration in the sample.
Serum samples for measurement of SUA levels were collected at the Screening Visit, the Week −4 Visit (prior to the first dose of MTX), and the Week −2 Visit during the MTX Run-in Period; within 48 hours prior to each pegloticase infusion and after the end of each pegloticase infusion prior to discharge from the site during the Pegloticase+IMM Period; at the non-infusion Week 52/End of Study/Early Termination Visits and at the Post Treatment 3 and 6 Month Follow-up Visits. Additional serum samples for SUA levels were collected at optional non-infusion (Frequent Sampling) Visits at Weeks 1 and 7. […] Subjects with SUA level >6 mg/dL at 2 consecutive visits beginning at Week 2 visit discontinued treatment, completed the End of Pegloticase Infusion Visit procedures within 2 weeks and continued the subject visits according to the protocol (without treatment).
Efficacy analyses were performed using the modified intention-to-treat (mITT) population, defined as all enrolled subjects who received ≥1 dose of pegloticase. The proportion of Month 6 responders was summarized, along with a 95% confidence interval for the proportion. The proportion of Month 3 and overall (Months 3 and 6 combined) responders was analyzed similarly.
A subject was declared a non-responder if the subject had SUA level >6 mg/dL at 2 consecutive study visits beginning with the Week 2 Visit. In addition, a subject who withdraws from study treatment for any reason after the first dose of pegloticase in the KXX+MTX Period and prior to Month 6 (for the primary endpoint) or Month 3 (for the secondary endpoint) was considered a non-responder if SUA values were not collected at the planned time points.
Patients were administered oral MTX (15 mg/week) and folate (1 mg/day) 4 weeks prior to the first pegloticase infusion (Day 1) and throughout the pegloticase treatment period. Blood was drawn prior to each infusion to measure sUA level, monitor clinical parameters, and examine for ADA development. All patients followed typical IR prophylaxis protocols (fexofenadine one day before and the morning of each infusion and acetaminophen and IV corticosteroid the morning of each infusion).

pegloticase
8 (100%): sUA <6 mg/dL, n (%) (Week 26-Pre-Infusion, n=8) | sUA <6 mg/dL, n (%) (Week 28-Pre-Infusion, n=8) | sUA <6 mg/dL, n (%) (Week 30-Pre-Infusion, n=8) | sUA <6 mg/dL, n (%) (Week 32-Post-Infusion, n=8) | sUA <6 mg/dL, n (%) (Week 34-Post-Infusion, n=8)
-8.80 mg/dL: Serum Uric Acid, Change from Baseline, Median (Week 14-Pre-Infusion, n=11) | Serum Uric Acid, Change from Baseline, Median (Week 16-Post-Infusion, n=11) | Serum Uric Acid, Change from Baseline, Median (Week 16-Pre-Infusion, n=11) | Serum Uric Acid, Change from Baseline, Median (Week 18-Post-Infusion, n=11) | Serum Uric Acid, Change from Baseline, Median (Week 18-Pre-Infusion, n=11) | Serum Uric Acid, Change from Baseline, Median (Week 20-Post-Infusion, n=11) | Serum Uric Acid, Change from Baseline, Median (Week 20-Pre-Infusion, n=11) | Serum Uric Acid, Change from Baseline, Median (Week 22-Post-Infusion, n=11) | Serum Uric Acid, Change from Baseline, Median (Week 22-Pre-Infusion, n=11) | Serum Uric Acid, Change from Baseline, Median (Week 24-Pre-Infusion, n=11)
−8.47 (3.248) mg/dL: Serum Uric Acid, Change from Baseline, Mean (SD) (Week 34-Pre-Infusion, n=10)
−10.55 (4.625) mg/dL: Serum Uric Acid, Change from Baseline, Mean (SD) (Week 44-Pre-Infusion, n=3)
-8.95 mg/dL: Serum Uric Acid, Change from Baseline, Median (Week 26-Pre-Infusion, n=8) | Serum Uric Acid, Change from Baseline, Median (Week 28-Pre-Infusion, n=8) | Serum Uric Acid, Change from Baseline, Median (Week 30-Pre-Infusion, n=8) | Serum Uric Acid, Change from Baseline, Median (Week 32-Post-Infusion, n=8) | Serum Uric Acid, Change from Baseline, Median (Week 32-Pre-Infusion, n=10) | Serum Uric Acid, Change from Baseline, Median (Week 34-Post-Infusion, n=8)
0.30 (0.000) mg/dL: Serum Uric Acid, Observed, Mean (SD) (Week 14-Pre-Infusion, n=11) | Serum Uric Acid, Observed, Mean (SD) (Week 16-Post-Infusion, n=11) | Serum Uric Acid, Observed, Mean (SD) (Week 16-Pre-Infusion, n=11) | Serum Uric Acid, Observed, Mean (SD) (Week 18-Post-Infusion, n=11) | Serum Uric Acid, Observed, Mean (SD) (Week 18-Pre-Infusion, n=11) | Serum Uric Acid, Observed, Mean (SD) (Week 20-Post-Infusion, n=11) | Serum Uric Acid, Observed, Mean (SD) (Week 20-Pre-Infusion, n=11) | Serum Uric Acid, Observed, Mean (SD) (Week 22-Pre-Infusion, n=11) | Serum Uric Acid, Observed, Mean (SD) (Week 24-Post-Infusion, n=5) | Serum Uric Acid, Observed, Mean (SD) (Week 24-Pre-Infusion, n=11) | Serum Uric Acid, Observed, Mean (SD) (Week 26-Pre-Infusion, n=8) | Serum Uric Acid, Observed, Mean (SD) (Week 28-Pre-Infusion, n=8) | Serum Uric Acid, Observed, Mean (SD) (Week 30-Pre-Infusion, n=8) | Serum Uric Acid, Observed, Mean (SD) (Week 32-Post-Infusion, n=8) | Serum Uric Acid, Observed, Mean (SD) (Week 32-Pre-Infusion, n=10) | Serum Uric Acid, Observed, Mean (SD) (Week 34-Post-Infusion, n=8) | Serum Uric Acid, Observed, Mean (SD) (Week 36-Post-Infusion, n=6) | Serum Uric Acid, Observed, Mean (SD) (Week 40-Pre-Infusion, n=3) | Serum Uric Acid, Observed, Mean (SD) (Week 42-Pre-Infusion, n=3) | Serum Uric Acid, Observed, Mean (SD) (Week 46-Pre-Infusion, n=2)
3 (100%): sUA <6 mg/dL, n (%) (Week 40-Pre-Infusion, n=3) | sUA <6 mg/dL, n (%) (Week 42-Pre-Infusion, n=3) | sUA <6 mg/dL, n (%) (Week 44-Pre-Infusion, n=3)
0.93 (1.583) mg/dL: Serum Uric Acid, Observed, Mean (SD) (Week 38-Pre-Infusion, n=5)
11 (100%): sUA <6 mg/dL, n (%) (Week 14-Pre-Infusion, n=11) | sUA <6 mg/dL, n (%) (Week 16-Post-Infusion, n=11) | sUA <6 mg/dL, n (%) (Week 16-Pre-Infusion, n=11) | sUA <6 mg/dL, n (%) (Week 18-Post-Infusion, n=11) | sUA <6 mg/dL, n (%) (Week 18-Pre-Infusion, n=11) | sUA <6 mg/dL, n (%) (Week 20-Post-Infusion, n=11) | sUA <6 mg/dL, n (%) (Week 20-Pre-Infusion, n=11) | sUA <6 mg/dL, n (%) (Week 22-Post-Infusion, n=11) | sUA <6 mg/dL, n (%) (Week 24-Pre-Infusion, n=11)
0.30 mg/dL: Serum Uric Acid, Observed, Median (Week 14-Post-Infusion, n=10) | Serum Uric Acid, Observed, Median (Week 14-Pre-Infusion, n=11) | Serum Uric Acid, Observed, Median (Week 16-Post-Infusion, n=11) | Serum Uric Acid, Observed, Median (Week 16-Pre-Infusion, n=11) | Serum Uric Acid, Observed, Median (Week 18-Post-Infusion, n=11) | Serum Uric Acid, Observed, Median (Week 18-Pre-Infusion, n=11) | Serum Uric Acid, Observed, Median (Week 20-Post-Infusion, n=11) | Serum Uric Acid, Observed, Median (Week 20-Pre-Infusion, n=11) | Serum Uric Acid, Observed, Median (Week 22-Post-Infusion, n=11) | Serum Uric Acid, Observed, Median (Week 22-Pre-Infusion, n=11) | Serum Uric Acid, Observed, Median (Week 24-Post-Infusion, n=5) | Serum Uric Acid, Observed, Median (Week 24-Pre-Infusion, n=11) | Serum Uric Acid, Observed, Median (Week 26-Pre-Infusion, n=8) | Serum Uric Acid, Observed, Median (Week 28-Pre-Infusion, n=8) | Serum Uric Acid, Observed, Median (Week 30-Pre-Infusion, n=8) | Serum Uric Acid, Observed, Median (Week 32-Post-Infusion, n=8) | Serum Uric Acid, Observed, Median (Week 32-Pre-Infusion, n=10) | Serum Uric Acid, Observed, Median (Week 34-Post-Infusion, n=8) | Serum Uric Acid, Observed, Median (Week 34-Pre-Infusion, n=10) | Serum Uric Acid, Observed, Median (Week 36-Post-Infusion, n=6) | Serum Uric Acid, Observed, Median (Week 36-Pre-Infusion, n=9) | Serum Uric Acid, Observed, Median (Week 38-Pre-Infusion, n=5) | Serum Uric Acid, Observed, Median (Week 40-Pre-Infusion, n=3) | Serum Uric Acid, Observed, Median (Week 42-Pre-Infusion, n=3) | Serum Uric Acid, Observed, Median (Week 44-Pre-Infusion, n=3) | Serum Uric Acid, Observed, Median (Week 46-Pre-Infusion, n=2)
1.58 (2.425) mg/dL: Serum Uric Acid, Observed, Mean (SD) (Week 36-Pre-Infusion, n=9)
10 (100%): sUA <6 mg/dL, n (%) (Week 14-Post-Infusion, n=10) | sUA <6 mg/dL, n (%) (Week 32-Pre-Infusion, n=10) | sUA <6 mg/dL, n (%) (Week 34-Pre-Infusion, n=10)
8 ( 88.9%): sUA <6 mg/dL, n (%) (Week 36-Pre-Infusion, n=9)
1.05 (1.305) mg/dL: Serum Uric Acid, Observed, Mean (SD) (Week 44-Pre-Infusion, n=3)
5 (100%): sUA <6 mg/dL, n (%) (Week 24-Post-Infusion, n=5) | sUA <6 mg/dL, n (%) (Week 38-Pre-Infusion, n=5)
−9.11 (3.293) mg/dL: Serum Uric Acid, Change from Baseline, Mean (SD) (Week 26-Pre-Infusion, n=8) | Serum Uric Acid, Change from Baseline, Mean (SD) (Week 28-Pre-Infusion, n=8) | Serum Uric Acid, Change from Baseline, Mean (SD) (Week 30-Pre-Infusion, n=8) | Serum Uric Acid, Change from Baseline, Mean (SD) (Week 32-Post-Infusion, n=8) | Serum Uric Acid, Change from Baseline, Mean (SD) (Week 34-Post-Infusion, n=8)
2 (100%): sUA <6 mg/dL, n (%) (Week 46-Pre-Infusion, n=2)
−9.38 (3.799) mg/dL: Serum Uric Acid, Change from Baseline, Mean (SD) (Week 36-Post-Infusion, n=6)
-9.80 mg/dL: Serum Uric Acid, Change from Baseline, Median (Week 40-Pre-Infusion, n=3) | Serum Uric Acid, Change from Baseline, Median (Week 42-Pre-Infusion, n=3) | Serum Uric Acid, Change from Baseline, Median (Week 44-Pre-Infusion, n=3)
−8.97 (2.810) mg/dL: Serum Uric Acid, Change from Baseline, Mean (SD) (Week 14-Pre-Infusion, n=11) | Serum Uric Acid, Change from Baseline, Mean (SD) (Week 16-Post-Infusion, n=11) | Serum Uric Acid, Change from Baseline, Mean (SD) (Week 16-Pre-Infusion, n=11) | Serum Uric Acid, Change from Baseline, Mean (SD) (Week 18-Post-Infusion, n=11) | Serum Uric Acid, Change from Baseline, Mean (SD) (Week 18-Pre-Infusion, n=11) | Serum Uric Acid, Change from Baseline, Mean (SD) (Week 20-Post-Infusion, n=11) | Serum Uric Acid, Change from Baseline, Mean (SD) (Week 20-Pre-Infusion, n=11) | Serum Uric Acid, Change from Baseline, Mean (SD) (Week 22-Pre-Infusion, n=11) | Serum Uric Acid, Change from Baseline, Mean (SD) (Week 24-Pre-Infusion, n=11)
−8.99 (2.961) mg/dL: Serum Uric Acid, Change from Baseline, Mean (SD) (Week 32-Pre-Infusion, n=10)
−11.30 (3.686) mg/dL: Serum Uric Acid, Change from Baseline, Mean (SD) (Week 40-Pre-Infusion, n=3) | Serum Uric Acid, Change from Baseline, Mean (SD) (Week 42-Pre-Infusion, n=3)
-9.20 mg/dL: Serum Uric Acid, Change from Baseline, Median (Week 36-Post-Infusion, n=6)
−9.18 (4.135) mg/dL: Serum Uric Acid, Change from Baseline, Mean (SD) (Week 24-Post-Infusion, n=5)
−12.65 (4.031) mg/dL: Serum Uric Acid, Change from Baseline, Mean (SD) (Week 46-Pre-Infusion, n=2)
-8.60 mg/dL: Serum Uric Acid, Change from Baseline, Median (Week 36-Pre-Infusion, n=9) | Serum Uric Acid, Change from Baseline, Median (Week 38-Pre-Infusion, n=5)
11(100%): sUA <6 mg/dL, n (%) (Week 22-Pre-Infusion, n=11)
-12.65 mg/dL: Serum Uric Acid, Change from Baseline, Median (Week 46-Pre-Infusion, n=2)
0.82 (1.046) mg/dL: Serum Uric Acid, Observed, Mean (SD) (Week 34-Pre-Infusion, n=10)
−8.41 (5.229) mg/dL: Serum Uric Acid, Change from Baseline, Mean (SD) (Week 38-Pre-Infusion, n=5)
−7.90 (4.094) mg/dL: Serum Uric Acid, Change from Baseline, Mean (SD) (Week 36-Pre-Infusion, n=9)
-7.95 mg/dL: Serum Uric Acid, Change from Baseline, Median (Week 34-Pre-Infusion, n=10)
6 (100%): sUA <6 mg/dL, n (%) (Week 36-Post-Infusion, n=6)
-9.30 mg/dL: Serum Uric Acid, Change from Baseline, Median (Week 24-Post-Infusion, n=5)

From patent US20220409620A1, “REDUCING IMMUNOGENICITY TO PEGLOTICASE” (Horizon Pharma Rheumatology LLC, priority 2016, published 2022)
